Experiments:
P2X7 receptor = biological target: T1, P2X7 receptor (Homo sapiens, UniProt Q99572); assay: IL-1β release assay in differentiated THP-1 cells (Example 9); assay type: cell-based; settings: THP-1 cells differentiated with LPS and IFN-γ; 30 min pretreatment; BzATP 250 uM; IL-1β by ELISA
T1 construct: host or cells: THP-1 cells differentiated with LPS and IFN-γ
T1 sequence (Q99572 1-595): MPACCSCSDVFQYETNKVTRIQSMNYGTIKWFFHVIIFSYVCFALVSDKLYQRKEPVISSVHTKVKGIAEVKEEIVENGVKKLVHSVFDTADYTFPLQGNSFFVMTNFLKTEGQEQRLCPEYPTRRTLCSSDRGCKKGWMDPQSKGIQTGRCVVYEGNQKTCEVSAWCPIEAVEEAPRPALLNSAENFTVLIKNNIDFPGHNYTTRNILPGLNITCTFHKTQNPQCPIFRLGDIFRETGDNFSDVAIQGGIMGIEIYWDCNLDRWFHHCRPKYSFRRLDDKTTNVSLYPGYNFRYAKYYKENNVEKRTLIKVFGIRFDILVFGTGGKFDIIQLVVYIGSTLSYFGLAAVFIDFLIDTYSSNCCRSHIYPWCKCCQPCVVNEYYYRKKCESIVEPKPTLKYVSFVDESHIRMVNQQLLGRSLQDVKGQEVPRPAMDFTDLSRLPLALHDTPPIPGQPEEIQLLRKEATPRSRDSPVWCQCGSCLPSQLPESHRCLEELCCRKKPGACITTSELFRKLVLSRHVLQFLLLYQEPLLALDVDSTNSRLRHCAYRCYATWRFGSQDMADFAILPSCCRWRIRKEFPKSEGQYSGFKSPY
Summary of the method: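 THP-1 cells differentiated 16 h with LPS and IFN-γ (100 ng/mL each), re-primed 2 h with LPS, then pretreated 30 min with compound before 250 uM BzATP for 45 min. Supernatant IL-1β measured by ELISA; background-adjusted % inhibition fitted to a four-parameter logistic for IC50.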

[1] = Half-life in human liver microsomes (HLM); assay type: in vitro ADME; settings: human liver microsomes 0.78 mg/mL, 1 μM compound, NADPH, 37° C.; for half-life at 1 μM: pH 7.4
Experimental: Half-Life in Human Liver Microsomes (HLM)
Test compounds (1 μM) are incubated with 3.3 mM MgCl2 and 0.78 mg/mL HLM (HL101) in 100 mM potassium phosphate buffer (pH 7.4) at 37° C. on the 96-deep well plate. The reaction mixture is split into two groups, a non-P450 and a P450 group. NADPH is only added to the reaction mixture of the P450 group. An aliquot of samples of P450 group is collected at 0, 10, 30, and 60 min time point, where 0 min time point indicated the time when NADPH is added into the reaction mixture of P450 group. […] Collected aliquots are extracted with acetonitrile solution containing an internal standard. […] The compound concentration in supernatant is measured by LC/MS/MS system.
The half-life value is obtained by plotting the natural logarithm of the peak area ratio of compounds/internal standard versus time. The slope of the line of best fit through the points yields the rate of metabolism (k). This is converted to a half-life value using following equations: Half-life=ln 2/k

[2] = Pharmacokinetic evaluation following intravenous and oral administration in rats; assay type: in vivo, rat; settings: male Sprague-Dawley rats; PO 1 to 5 mg/kg vs IV 1 mg/kg; AUCinf(PO)/AUCinf(IV) dose-normalized
Experimental: Pharmacokinetic Evaluation of Compounds Following Intravenous and Oral Administration in Rats.
Male Sprague-Dawley rats are acclimated for at least 24 hours prior to experiment initiation. During the acclimation period, all animals receive food and water ad libitum. However, food but not water is removed from the animals' cages at least 12 hours before initiation of the experiment. During the first 3 hours of experimentation, the animals receive only water ad libitum. At least three animals each are tested for intravenous and oral dosage. For intravenous formulation, compounds are dissolved (0.25 to 1 mg/mL) in a mixture of 3% dimethyl sulfoxide, 40% PEG 400 and the rest percentage of 40% Captisol in water (w/v). The animals are weighed before dosing. The determined body weight is used to calculate the dose volume for each animal. Dose volume (mL/kg)=1 mg/kg/formulation concentration (mg/mL)
In instances where the formulation concentrations are less than 0.5 mg/mL, the dosing volume is about 2 mL/kg.
For oral formulation, compounds of this invention are suspended (0.5 to 0.75 mg/mL) in a mixture of 5% of 10% Tween 80 in water (v/v) and 95% of 0.5% methyl cellulose in water (w/v). PO rats are typically dosed through oral gavage following the same dose volume formula as IV to achieve a dose level of 1 to 5 mg/kg. For IV dosing, blood samples are collected (using a pre-heparinized syringe) via the jugular vein catheter at 2, 5, 15, 30, 60, 120, 180, 300, 480, and 1440 minutes post dosing. For PO dosing blood samples are collected (using a pre-heparinized syringe) via the jugular vein catheter before dosing and at 5, 15, 30, 60, 120, 180, 300, 480, and 1440 minutes post dosing. About 250 uL of blood is obtained at each time point from the animal. Equal volumes of 0.9% normal saline are replaced to prevent dehydration. The whole blood samples are maintained on ice until centrifugation. Blood samples are then centrifuged at 14,000 rpm for 10 minutes at 4° C., and the upper plasma layer is then transferred into a clean vial and stored at −80° C. The resulting plasma samples are then analyzed by liquid chromatography-tandem mass spectrometry. Following the measurement of plasma samples and dosing solutions, plasma concentration-time curve is plotted. Plasma exposure is calculated as the area under the concentration-time curve extrapolated to time infinite (AUCinf). The AUCinf is averaged and the oral bioavailability (% F) for individual animal is calculated as: • AUCinf(PO)/AUCinf(IV), normalized to their respective dose levels.
The % F can be reported as the mean % F of all animals dosed orally with the compound of the invention at the specified level.
For the purpose of Table 3, the oral bioavailability of each compound is expressed as follows: […]

[3] = Plasma protein binding by equilibrium dialysis, human plasma; assay type: in vitro ADME; settings: pH 7.4, equilibrium dialysis 16 hr at 37° C., % Bound
Experimental: The plasma protein binding of compounds of invention is measured in human and rat plasma, respectively. A stock solution of the tested compound is prepared in 1 mg/mL in DMSO solution. The stock solution is spiked into the blank plasma to get a final compound concentration at 1 μg/mL for testing. Equilibrium dialysis (The equilibrium dialyzer-96TM MWCO 5K Daltons, Harvard Apparatus) method is used for the testing purpose.
The compound spiked plasma (at […]) and phosphate buffer (0.1 M, pH 7.4), 200 μl each, are added into the opposite sides of the membrane in a 96-well equilibrium dialyzer, respectively. The dialyzer plate is covered and incubated overnight (16 hr) at 37° C. in the 8-plate rotor incubator (Big Shot III 8-plate rotor, Harvard Apparatus). Aliquots (100 μL) are taken from the plasma and the buffer compartments, respectively. The matrix effects are eliminated by adding the same volume of blank plasma into the samples from buffer compartments and adding the same volume of phosphate buffer into the samples from plasma compartments. The samples are extracted by using the regular (3:1) protein precipitation extraction procedure (acetonitrile with internal standard). The supernatants are taken for LC/MS/MS analysis. The percentage of plasma-protein binding can be calculated by using the following method: % Free=[Free Drug/Total Drug]*100=[(Peak Area)buffer/(Peak Area)plasma]*100 % Bound=100−% Free.
For the purpose of Table 4, the plasma protein binding of each compound is expressed as follows: […]

IC50 (P2X7 receptor) | Half Life [1] | Oral Bioavailability F (%) [2] | fraction unbound at 16 hr, 1 μg/mL [3] | half-life at 1 μM [1] | Compound
5 nM | – | +++ (51-75% F) | 0.1 to 0.24 | 1.6 h | Cc1ccc2c(=O)n([C@H](C)CO)ccc2c1NC(=O)Cc1ccc(Cl)c(F)c1 [Compound 26, 2-(4-Chloro-3-fluoro-phenyl)-N-[2-((R)-2-hydroxy-1-methyl-ethyl)-6-methyl-1-oxo-1,2-dihydro-isoquinolin-5-yl]-acetamide]
0.1 nM | – | + (0-25% F) | – | 0.8 h | C[C@H](C(N)=O)n1ccc2c(NC(=O)CC34CC5CC(CC(C5)C3)C4)c(Cl)ccc2c1=O [Compound 2]
0.4 nM | – | + (0-25% F) | – | 1.3 h | Cc1ccc2c(=O)n([C@H](C)C(N)=O)ccc2c1NC(=O)Cc1ccc(C(F)(F)F)c(F)c1 [Compound 51, (R)-2-{5-[2-(3-Fluoro-4-trifluoromethyl-phenyl)-acetylamino]-6-methyl-1-oxo-1H-isoquinolin-2-yl}-propionamide]
5 nM | 1.6 h | ++++ (>75% F) | < 0.1 | – | C[C@H](CO)n1ccc2c(NC(=O)Cc3ccc(C(F)(F)F)c(F)c3)c(Cl)ccc2c1=O [Compound 11, N-[6-Chloro-2-((R)-2-hydroxy-1-methyl-ethyl)-1-oxo-1,2-dihydro-isoquinolin-5-yl]-2-(3-fluoro-4-trifluoromethyl-phenyl)-acetamide]
5 nM | 1.1 h | + (0-25% F) | < 0.1 | – | O=C(Cc1ccc(F)c(C(F)(F)F)c1)Nc1c(Cl)ccc2c(=O)n(CCO)ccc12 [Compound 19, N-[6-Chloro-2-(2-hydroxy-ethyl)-1-oxo-1,2-dihydro-isoquinolin-5-yl]-2-(4-fluoro-3-trifluoromethyl-phenyl)-acetamide]
23 nM | – | + (0-25% F) | – | 3.5 h | Cc1ccc2c(=O)n([C@H]3CCNC3)ccc2c1NC(=O)Cc1ccc(C(F)(F)F)c(F)c1 [Compound 29, 2-(3-Fluoro-4-trifluoromethyl-phenyl)-N-((S)-6-methyl-1-oxo-2-pyrrolidin-3-yl-1,2-dihydro-isoquinolin-5-yl)-acetamide]
7 nM | 1.2 h | + (0-25% F) | – | – | C[C@H](C(N)=O)n1ccc2c(NC(=O)Cc3cccc(C(F)(F)F)c3F)c(Cl)ccc2c1=O [Compound 5, (R)-2-{6-Chloro-5-[2-(2-fluoro-3-trifluoromethyl-phenyl)-acetylamino]-1-oxo-1H-isoquinolin-2-yl}-propionamide]
10 nM | 3.2 h | ++++ (>75% F) | < 0.1 | – | C[C@H](CO)n1ccc2c(NC(=O)Cc3ccc(C(F)(F)F)cc3)c(Cl)ccc2c1=O [Compound 10, N-[6-Chloro-2-((R)-2-hydroxy-1-methyl-ethyl)-1-oxo-1,2-dihydro-isoquinolin-5-yl]-2-(4-trifluoromethyl-phenyl)-acetamide]
0.7 nM | – | + (0-25% F) | – | 0.3 h | Cc1ccc2c(=O)n([C@H](C)CO)ccc2c1C(=O)NCC1CCCCCC1 [Compound 49, 2-((R)-2-Hydroxy-1-methyl-ethyl)-6-methyl-1-oxo-1,2-dihydro-isoquinoline-5-carboxylic acid cycloheptylmethyl-amide]

Compound | IC50 (P2X7 receptor) | Half Life [1] | Oral Bioavailability F (%) [2] | fraction unbound at 16 hr, 1 μg/mL [3] | half-life at 1 μM [1]
O=C(Cc1ccc(C(F)(F)F)c(F)c1)Nc1c(Cl)ccc2c(=O)n(CCO)ccc12 [Compound 16, N-[6-Chloro-2-(2-hydroxy-ethyl)-1-oxo-1,2-dihydro-isoquinolin-5-yl]-2-(3-fluoro-4-trifluoromethyl-phenyl)-acetamide] | 6 nM | 3.7 h | ++++ (>75% F) | < 0.1 | –

From patent US8093265B2, “Bicycloheteroaryl compounds as P2X7 modulators and uses thereof” (Renovis, Inc., priority 2007, dated 2012)
